Patent US11976083B2, “Inhibitors of peptidylarginine deiminases” (Gilead Sciences, Inc., priority 2020, dated 2024)

Target: T1, human PAD4 (Homo sapiens, UniProt Q9UM07)
T1 construct: human PAD4 (NM_012387), A2-P663, was PCR amplified; His-SUMO (N, cleaved yes); made in house; host or cells: E. coli BL21(DE3)
Test: In vitro PAD4 BAEE biochemical assay
Settings: BAEE substrate 3 mM, 5 nM PAD4, 2 mM calcium chloride; geometric mean of multiple experiments
Procedure, shortened: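 Assay was run at 25 °C using 3 mM BAEE and 5 nM human PAD4 after a 30 min compound preincubation; ammonia produced over 2 h was quantified by OPA-derived fluorescence. Full inhibition was defined by 50 µM BB-Cl-Amidine, and IC50 came from variable-slope nonlinear regression.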

T1 sequence (Q9UM07 2-663): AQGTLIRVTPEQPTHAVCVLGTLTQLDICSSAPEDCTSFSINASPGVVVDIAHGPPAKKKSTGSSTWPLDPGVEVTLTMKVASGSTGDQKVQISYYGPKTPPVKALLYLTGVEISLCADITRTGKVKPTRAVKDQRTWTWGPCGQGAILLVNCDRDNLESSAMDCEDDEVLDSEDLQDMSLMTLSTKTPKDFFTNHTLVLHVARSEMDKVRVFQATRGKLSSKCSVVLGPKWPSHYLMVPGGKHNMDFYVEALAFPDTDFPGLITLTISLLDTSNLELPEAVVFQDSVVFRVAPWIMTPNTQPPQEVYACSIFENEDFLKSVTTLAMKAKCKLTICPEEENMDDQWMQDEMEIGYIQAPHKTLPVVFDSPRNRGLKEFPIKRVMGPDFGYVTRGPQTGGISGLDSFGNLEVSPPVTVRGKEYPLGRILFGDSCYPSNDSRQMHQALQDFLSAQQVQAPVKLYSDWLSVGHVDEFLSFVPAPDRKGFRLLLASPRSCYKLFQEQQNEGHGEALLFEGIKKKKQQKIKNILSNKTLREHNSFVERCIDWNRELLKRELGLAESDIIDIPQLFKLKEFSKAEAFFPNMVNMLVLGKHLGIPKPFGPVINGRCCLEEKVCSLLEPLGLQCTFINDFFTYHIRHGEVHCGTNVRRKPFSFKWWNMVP

Compound	IC50
COc1cc(C(=O)N2C[C@H](N)[C@@H]3CC[C@H]2C3)cc2nc(-c3cc4ccc5nc4n3CCCCCc3ccc(F)cc3C(=O)N[C@@H]5C)n(C)c12 [Example 899, (2~{R})-17-[5-[(1~{S},4~{R}, 5~{R})-4-amino-2-azabicyclo [3.2.1]octane-2-carbonyl]-7-methoxy-1-methyl-benzimidazol-2-yl]-7-fluoro-2-methyl-3,16,22-triazatetracyclo [14.5.2.0^{5,10}.0^{19,23}] tricosa-1(22),5(10),6,8,17, 19(23),20-heptaen-4-one]	30 nM
COc1cc(C(=O)N2C[C@H](N)[C@@H]3CC[C@H]2C3)cc2nc(-c3cc4ccc5nc4n3CCCCCc3cc(F)ccc3C(=O)N[C@@H]5C)n(C)c12 [Example 900, (2~{R})-17-[5-[(1~{S),4~{R}, 5~{R})-4-amino-2-azabicyclo [3.2.1]octane-2-carbonyl]-7-methoxy-1-methyl-benzimidazol-2-yl]-8-fluoro-2-methyl-3,16,22-triazatetracyclo[14.5.2.0^ {5,10}.0^{19,23}]tricosa-1(22),5(10),6,8,17,19(23),20-heptaen-4-one]	28 nM
COc1cc(C(=O)N2C[C@H](N)[C@@H]3CC[C@H]2C3)cc2nc(-c3cc4ccc5nc4n3CCCCCc3cc(Cl)ccc3C(=O)N[C@@H]5C)n(C)c12 [Example 901, (2~{R})-17-[5-[(1~{S),4~{R}, 5~{R})-4-amino-2-azabicyclo [3.2.1]octane-2-carbonyl]-7-methoxy-1-methyl-benzimidazol-2-yl]-8-chloro-2-methyl-3,16,22-triazatetracyclo [14.5.2.0^{5,10}.0^{19,23}] tricosa-1(22),5(10),6,8,17, 19(23),20-heptaen-4-one]	59 nM
COc1cc(C(=O)N2C[C@H](N)[C@@H]3CC[C@H]2C3)cc2nc(-c3cc4ccc5nc4n3CCCCCc3cccc(F)c3C(=O)N[C@@H]5C)n(C)c12 [Example 902, (2~{R})-17-[5-[(1~{S),4~{R}, 5~{R})-4-amino-2-azabicyclo [3.2.1]octane-2-carbonyl]-7-methoxy-1-methyl-benzimidazol-2-yl]-6-fluoro-2-methyl-3,16,22-triazatetracyclo [14.5.2.0^{5,10}.0^{19,23}] tricosa-1(22),5(10),6,8,17, 19(23),20-heptaen-4-one]	48 nM
COc1cc(C(=O)N2C[C@H](N)[C@@H]3CC[C@H]2C3)cc2nc(-c3cc4ccc5nc4n3CCCCCc3c(F)ccc(F)c3C(=O)N[C@@H]5C)n(C)c12 [Example 903, (2~{R})-17-[5-[(1~{S},4~{R}, 5~{R})-4-amino-2-azabicyclo [3.2.1]octane-2-carbonyl]-7-methoxy-1-methyl-benzimidazol-2-yl]-6,9-difluoro-2-methyl-3,16,22-triazatetracyclo [14.5.2.0^{5,10}.0^{19,23}] tricosa-1(22),5(10),6,8,17, 19(23),20-heptaen-4-one]	55 nM
COc1cc(C(=O)N2C[C@H](N)[C@@H]3CC[C@H]2C3)cc2nc(-c3cc4ccc5nc4n3CCCCCOC3(CC3)C(=O)N[C@@H]5C)n(C3CC3)c12 [Example 904, (11~{R})-17-[5-[(1~{S),4~{R}, 5~{R})-4-amino-2-azabicyclo [3.2.1]octane-2-carbonyl]-1-cyclopropyl-7-methoxy-benzimidazol-2-yl]-11-methyl-spiro[7-oxa-1,10,19-triazatricyclo[10.5.2.0^{15,18}]nonadeca-12(19), 13,15(18),16-tetraene-8,1′-cyclopropane]-9-one]	101 nM
COc1cc(C(=O)N2C[C@H](N)[C@@H]3CC[C@H]2C3)cc2nc(-c3cc4ccc5nc4n3CCCCCOC(C)(C)C(=O)N[C@@H]5C)n(C3CC3)c12 [Example 905, (11~{R})-17-[5-[(1~{S},4~{R}, 5~{R})-4-amino-2-azabicyclo [3.2.1]octane-2-carbonyl]-1-cyclopropyl-7-methoxy-benzimidazol-2-yl]-8,8,11-trimethyl-7-oxa-1,10,19-triazatricyclo[10.5.2.0^{15,18}] nonadeca-12(19), 13,15(18),16-tetraen-9-one]	72 nM
COc1cc(C(=O)N2C[C@H](N)[C@@H]3CC[C@H]2C3)cc2nc(-c3cc4ccc5nc4n3CCCCCc3c(ccc(F)c3F)C(=O)N[C@@H]5C)n(C)c12 [Example 906, (2~{R})-17-[5-[(1~{S},4~{R}, 5~{R})-4-amino-2-azabicyclo [3.2.1]octane-2-carbonyl]-7-methoxy-1-methyl-benzimidazol-2-yl]-8,9-difluoro-2-methyl-3,16,22-triazatetracyclo [14.5.2.0^{5,10).0^{19,23}] tricosa-1(22),5(10),6,8,17, 19(23),20-heptaen-4-one]	55 nM
COc1cc(C(=O)N2C[C@H](N)[C@@H]3CC[C@H]2C3)cc2nc(-c3cc4ccc5nc4n3CCCCCCCN(C(C)=O)[C@@H]5C)n(C)c12 [Example 907]	82 nM
COc1cc(C(=O)N2C[C@H](N)[C@@H]3CC[C@H]2C3)cc2nc(-c3cc4ccc5nc4n3CCCCCCCCN(C(C)=O)[C@@H]5C)n(C)c12 [Example 908]	151 nM
COc1cc(C(=O)N2C[C@H](N)[C@@H]3CC[C@H]2C3)cc2nc(-c3cc4ccc5nc4n3CCCCCOC(C)(C)C(=O)N[C@@H]5C)n(C)c12 [Example 909, (11~{R})-17-[5-[(1~{S},4~{R), 5~{R})-4-amino-2-azabicyclo [3.2.1]octane-2-carbonyl]-7-methoxy-1-methyl-benzimidazol-2-yl]-8,8,11-trimethyl-7-oxa-1,10,19-triazatricyclo[10.5.2.0^{15,18}] nonadeca-12(19), 13,15(18),16-tetraen-9-one]	52 nM
COc1cc(C(=O)N2C[C@H](N)[C@@H]3CC[C@H]2C3)cc2nc(-c3cc4ccc5nc4n3CCCCCOC3(CC3)C(=O)N[C@@H]5C)n(C)c12 [Example 910, (11~{R})-17-[5-[(1~{S},4~ {R},5~{R})-4-amino-2-azabicyclo [3.2.1]octane-2-carbonyl]-7-methoxy-1-methyl-benzimidazol-2-yl]-11-methyl-spiro[7-oxa-1,10,19-triazatricyclo[10.5.2.0^{15,18}]nonadeca-12(19), 13,15(18),16-tetraene-8,1′-cyclopropane]-9-one]	49 nM
C[C@H]1NC(=O)c2c(C3CC3)cc(Cl)nc2CCCCCn2c(-c3nc4cc(C(=O)N5C[C@H](N)[C@@H]6CC[C@H]5C6)cc(F)c4n3C3CC3)cc3ccc1nc32 [Example 911, (2~{R})-17-[5-[(1~{S},4~{R}, 5~{R})-4-amino-2-azabicyclo[3.2.1]octane-2-carbonyl]-1-cyclopropyl-7-fluoro-benzimidazol-2-yl]-8-chloro-6-cyclopropyl-2-methyl-3,9,16,22-tetrazatetracyclo[14.5.2.0^ {5,10}.0^{19,23}]tricosa-1(22),5(10),6,8,17,19(23),20-heptaen-4-one]	61 nM
C[C@H]1NC(=O)c2ccnn2CCCCCn2c(-c3nc4cc(C(=O)N5C[C@H](N)[C@@H]6CC[C@H]5C6)cc(F)c4n3C3CC3)cc3ccc1nc32 [Example 912, (2~{R})-16-[5-[(1~{S},4~{R},5~ {R})-4-amino-2-azabicyclo [3.2.1]octane-2-carbonyl]-1-cyclopropyl-7-fluoro-benzimidazol-2-yl]-2-methyl-3,8,9,15,21-pentazatetracyclo [13.5.2.0^{5,9}.0^{18,22}] docosa-1(21),5,7,16,18(22),19-hexaen-4-one]	17 nM
C[C@H]1NC(=O)[C@@H]2C[C@H]2CCCCCn2c(-c3nc4cc(C(=O)N5C[C@H](N)[C@@H]6CC[C@H]5C6)ccc4n3C3CC3)cc3ccc1nc32 [Example 913, (2~{R},5~{R},7~{R})-14-[5-[(1~{S},4~{R},5~{R})-4-amino-2-azabicyclo[3.2.1]octane-2-carbonyl]-1-cyclopropyl-benzimidazol-2-yl]-2-methyl-3,13,19-triazatetracyclo [11.5.2.0^{5,7}.0^{16,20}] icosa-1(19),14,16(20),17-tetraen-4-one]	22 nM
C[C@H]1NC(=O)[C@@H]2C[C@H]2CCCC(F)(F)Cn2c(-c3nc4cc(C(=O)N5C[C@H](N)[C@@H]6CC[C@H]5C6)ccc4n3C3CC3)cc3ccc1nc32 [Example 914, (2~{R},5~{R},7~{R})-14-[5-[(1~{S},4~{R},5~{R})-4-amino-2-azabicyclo[3.2.1]octane-2-carbonyl]-1-cyclopropyl-benzimidazol-2-yl]-11,11-difluoro-2-methyl-3,13,19-triazatetracyclo[11.5.2.0^ {5,7}.0^{16,20}]icosa-1(19), 14,16(20),17-tetraen-4-one]	16 nM
COc1cc(C(=O)N2C[C@H](N)[C@@H]3CC[C@H]2C3)cc2nc(-c3cc4ccc5nc4n3CCCCC[C@@]3(F)C[C@]3(C)C(=O)N[C@@H]5C)n(C)c12 [Example 915, (2~{R},5~{R},7~{R})-14-[5-[(1~{S},4~{R},5~{R})-4-amino-2-azabicyclo[3.2.1]octane-2-carbonyl]-7-methoxy-1-methyl-benzimidazol-2-yl]-7-fluoro-2,5-dimethyl-3,13,19-triazatetracyclo[11.5.2.0^ {5,7}.0^{16,20}]icosa-1(19),14,16(20),17-tetraen-4-one]	47 nM
COc1cc(C(=O)N2C[C@H](N)[C@@H]3CC[C@H]2C3)cc2nc(-c3cc4ccc5nc4n3CCCCC[C@]3(F)C[C@@]3(C)C(=O)N[C@@H]5C)n(C)c12 [Example 916, (2~{R},5~{S},7~{S})-14-[5-[(1~{S},4~{R},5~{R})-4-amino-2-azabicyclo[3.2.1]octane-2-carbonyl]-7-methoxy-1-methyl-benzimidazol-2-yl]-7-fluoro-2,5-dimethyl-3,13,19-triazatetracyclo[11.5.2.0^ {5,7}.0^{16,20}]icosa-1(19),14,16(20),17-tetraen-4-one]	26 nM
